Results reported in patent publication EP3057949B1, “SECONDARY ALCOHOL QUINOLINYL MODULATORS OF ROR GAMMA T” (Janssen Pharmaceutica NV, priority 2013, dated 2015).
pIC50, pKd: −log10 of the molar value.

Columns and labels:
[1] = target: T1, full-length human RORγt (Homo sapiens, UniProt P51449); test: RORγt (full-length human) Reporter Assay (GAL4 luciferase, HEK293T cells); format: cell-based; settings: for inhibition at 2 µM / inhibition at 0.67 µM: HEK-293T; for inhibition at 2 µM: read-out: RORγt (FL) Reporter Assay, % inhibition @ 2 µM; for pIC50: overnight (16 to 20 hours) incubation, read-out: RORγt (FL) Reporter Assay, IC50; for inhibition at 0.67 µM: 0.67 µM compound concentration (footnote *), read-out: RORγt (FL) Reporter Assay, % inhibition (values marked *)
T1 construct: expressed in transfected cells; host or cells: HEK293T
T1 sequence (P51449 1-497 isoform P51449-2): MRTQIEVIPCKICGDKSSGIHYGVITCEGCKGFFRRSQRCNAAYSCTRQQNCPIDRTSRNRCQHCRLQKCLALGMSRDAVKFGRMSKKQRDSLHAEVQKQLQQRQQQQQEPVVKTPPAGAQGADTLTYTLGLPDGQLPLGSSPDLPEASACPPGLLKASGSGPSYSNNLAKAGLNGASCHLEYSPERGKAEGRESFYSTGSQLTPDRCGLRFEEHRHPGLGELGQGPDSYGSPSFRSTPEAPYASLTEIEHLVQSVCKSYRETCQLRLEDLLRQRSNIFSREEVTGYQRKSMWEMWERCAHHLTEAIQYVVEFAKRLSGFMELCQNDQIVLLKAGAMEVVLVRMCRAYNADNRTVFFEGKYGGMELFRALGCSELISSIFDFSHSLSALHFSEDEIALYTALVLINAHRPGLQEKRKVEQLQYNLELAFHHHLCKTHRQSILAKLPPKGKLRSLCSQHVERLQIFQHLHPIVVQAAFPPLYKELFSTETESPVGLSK
Description: (§1) Compounds were assessed for RORgt functional modulation using either the RORgt ligand binding domain (LBD) reporter assay, or the RORgt full-length (FL) reporter assay.
A reporter assay was used to test functional activity of RORγt modulatory compounds on transcriptional activation driven by full-length human RORγt. Cells used in this assay were transiently co-transfected with three different plasmids, one expressing the GAL4-DNA binding domain (DBD)-RORγt fusion protein under control of a CMV promoter (NH2-Gal4-DBD:RORC-COOH in pCMV-BD, Stratagene #211342), and two reporter plasmids - the firefly luciferase reporter under control of a GAL4 promoter (pFR-Luc 2x GAL4) and Renilla luciferase reporter under control of CMV promoter (pRL-CMV, Promega #E2261). The full-length coding sequence was used for human RORγt, i.e., nucleotides 142-1635 of human RORγt, transcript variant 2, NCBI Accession: NM_001001523.1 (SEQ ID NO:1). HEK293T cells were plated at 35000 per well in 96-well plate in medium of MEM with 8.6% FBS. After 18-22 hours incubation, the transfection was carried out by using a PEI solution with 170.5 ng total DNA/well (50 ng pCMV-BD-ROR plus 20 ng of pFR-Luc reporter and 0.5 ng of pRL-CMV reporter plus 100 ng Carrier DNA (Clontech # 630440) for each well). 4-6 hours after transfection, cells were treated with compounds for overnight in the medium with final concentration of FBS 1.1% and DMSO 0.1%. After overnight (16 to 20 hours) incubation, media were removed and cells were lysed with 20 µL 1x Passive Lysis Buffer (Promega) for 10-15 minutes. Luminescence was measured using a BMG LUMIstar OPTIMA plate reader, after addition of 75 µL/well firefly luciferase buffer, followed by 75 µL/well Renilla luciferase buffer. To calculate the effect of compounds on RORγt activity, firefly values were normalized against values of DMSO only and values of reference compound at saturating concentration, then further normalized against Renilla signals. IC50s were generated by plotting final Renilla normalized data against compound concentration and percent inhibition was calculated against DMSO control.

[2] = target: T2, human RORγt ligand binding domain (RORγt LBD) (Homo sapiens, UniProt P51449); test: ThermoFluor® Assay (RORγt thermal shift binding); settings: 0.065 mg/mL RORγt, 60 µM 1,8-ANS, pH 7.0; estimated from concentration response curves
T2 construct: His-tag (N); TurboTEV protease cleavage site (ENLYFQG) (N); made in house; host or cells: E. coli (pHIS1, modified pET vector)
T2 sequence (P51449 258-518): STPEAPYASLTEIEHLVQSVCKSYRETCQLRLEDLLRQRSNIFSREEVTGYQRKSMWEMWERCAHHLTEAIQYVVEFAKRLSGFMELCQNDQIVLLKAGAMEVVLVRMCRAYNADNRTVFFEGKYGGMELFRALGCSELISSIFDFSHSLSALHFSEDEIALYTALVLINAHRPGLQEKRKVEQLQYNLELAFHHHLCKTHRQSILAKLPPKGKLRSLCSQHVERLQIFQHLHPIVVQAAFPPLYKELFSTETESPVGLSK
Description: This approach is applicable to a wide variety of systems, and rigorous in theoretical interpretation through quantitation of equilibrium binding constants (KD).
The shift in the melting point described as a ΔTm is proportional to the concentration and affinity of the ligand. The compound potency may be compared as a rank order of either ATm values at a single compound concentration or in terms of KD values, estimated from concentration response curves.
ThermoFluor® experiments were carried out using instruments owned by Janssen Research and Discovery, L.L.C. through its acquisition of 3-Dimensional Pharmaceuticals, Inc. 1,8-ANS (Invitrogen) was used as a fluorescent dye. Protein and compound solutions are dispensed into black 384-well polypropylene PCR microplates (Abgene) and overlayed with silicone oil (1 µL, Fluka, type DC 200) to prevent evaporation.
Bar-coded assay plates are robotically loaded onto a thermostatically controlled PCR-type thermal block and then heated at a typical ramp-rate of 1 °C/minute for all experiments. Fluorescence was measured by continuous illumination with UV light (Hamamatsu LC6) supplied via fiber optic and filtered through a band-pass filter (380-400 nm; >6 OD cutoff). Fluorescence emission of the entire 384-well plate was detected by measuring light intensity using a CCD camera (Sensys, Roper Scientific) filtered to detect 500 ± 25 nm, resulting in simultaneous and independent readings of all 384 wells. Images were collected at each temperature, and the sum of the pixel intensity in a given area of the assay plate was recorded versus temperature. Reference wells contained RORyt without compounds, and the assay conditions were as follows: • 0.065 mg/mL RORγt • 60 µM 1,8-ANS • 100 mM Hepes, pH 7.0 • 10 mM NaCl • 2.5 mM GSH • 0.002% Tween-20
Project compounds were arranged in a pre-dosed mother plate (Greiner Bio-one) wherein compounds are serially diluted in 100% DMSO by 1:2 from a high concentration of 10 mM over 12 columns within a series (column 12 is a reference well containing DMSO, no compound). The compounds were robotically dispensed directly into assay plates (1x = 46 nL) using a Hummingbird capillary liquid handling instrument (Digilab). Following compound dispense, protein and dye in buffer was added to achieve the final assay volume of 3 µL, followed by 1 µL of silicone oil.

[3] = target: T3, human RORγt LBD (Homo sapiens, UniProt P51449); test: RORγt (LBD) Reporter Assay (GAL4 luciferase, HEK293T cells); format: cell-based; settings: for inhibition at 6 µM: HEK-293T, 6 µM compound; for pIC50: compounds for 24 hours
T3 construct: expressed in transfected cells; host or cells: HEK293T
T3 sequence (P51449 258-518): T2 sequence (P51449 258-518)
Description: as §1
A reporter assay was used to test functional activity of RORγt modulatory compounds on transcriptional activation driven by the RORγt LBD. Cells used in the assay were co-transfected with two constructs. The first construct, pBIND-RORγt LBD, contained the wild type human RORγt LBD fused to the DNA binding domain of the GAL4 protein. The second construct, pGL4.31 (Promega Cat no. C935A), contained multiple GAL4 responsive DNA elements upstream of firefly luciferase. […] The mutant construct was called pBIND-RORγt-AF2.
The pBIND vector contains the GAL4 DNA Binding Domain (GAL4 DBD) and the renilla luciferase gene under control of the SV40 promoter. Renilla luciferase expression serves as a control for transfection efficiency and cell viability.
The reporter assay was performed by transiently transfecting HEK293T cells with 5 µg of pBIND-RORγt LBD or pBIND-RORγt LBD-AF2 and 5 µg pGL4.31 (Promega Cat no. C935A) using Fugene 6 (Invitrogen Cat no. E2691) at a 1:6 ratio of DNA: Fugene 6 in a T-75 flask in which cells were at least 80% confluent. Twenty four hours after bulk transfection, cells were plated into 96-well plates at 50,000 cells/well in phenol-red free DMEM containing 5% Lipid Reduced FCS and Pen/Strep. Six hours after plating, cells were treated with compounds for 24 hours. Media was removed and cells were lysed with 50 µL 1x Glo Lysis Buffer (Promega). Dual Glo Luciferase Reagent (50 µL/well) was then added and firefly luciferase luminescence was read on an Envision after a ten minute incubation. Finally, Stop and Glo reagent (50 µL/well) was added and renilla luciferase luminescence was read on an Envision after a ten minute incubation. To calculate the effect of compounds on RORγt activity, the ratio of firefly to renilla luciferase was determined and plotted against compound concentration. Agonist compounds increase RORγt-driven luciferase expression, and antagonist or inverse agonist compounds decrease luciferase expression.

| SMILES | inhibition at 2 µM ([1]; 2 µM compound) [%] | pIC50 [1] | pKd [2] | inhibition at 0.67 µM [1] [%] | RORγt (FL) Reporter Assay, % inhibition @ 2 µM ([1]; 2 µM compound, 2 µM) [%] | inhibition at 6 µM [3] [%] | pIC50 [3] |
| --- | --- | --- | --- | --- | --- | --- | --- |
| COc1nc2ccc(C(O)c3ccc(C#N)cc3)cc2c(Cl)c1Cc1ccc(C#N)cc1 (stereo not drawn) [Example 9, 4-((4-Chloro-3-(4-cyanobenzyl)-2-methoxyquinolin-6-yl)(hydroxy)methyl)benzonitrile] | – | 6.82 | 6.17 | 42 | – | – | – |
| COc1nc2ccc(C(O)c3cnnn3C)cc2c(Cl)c1Cc1ccc(C(F)(F)F)cc1 (stereo not drawn) [Example 17a, (4-Chloro-2-methoxy-3-(4-(trifluoromethyl)benzyl)quinolin-6-yl)(1-methyl-1H-1,2,3-triazol-5-yl)methanol] | – | – | 7.19 | – | – | 99 | 6.51 |
| COc1nc2ccc(C(O)C3CN(C(=O)OC(C)(C)C)C3)cc2c(Cl)c1Cc1ccc(C(F)(F)F)cc1 (stereo not drawn) [Example 32, tert-Butyl-3-((4-chloro-2-methoxy-3-(4-(trifluoromethyl)benzyl)quinolin-6-yl)(hydroxy)methyl)azetidine-1-carboxylate] | – | – | 4.80 | – | – | 84 | 5.66 |
| Cn1cncc1C(O)c1ccc2nc(Cl)c(-c3ccccc3)c(Cl)c2c1 (stereo not drawn) [Example 2, (2,4-Dichloro-3-phenylquinolin-6-yl)(1-methyl-1H-imidazol-5-yl)methanol] | – | – | 5.80 | – | – | 12 | < 5.22 |
| Cc1noc(C)c1C(O)c1ccc2nc(Cl)c(-c3ccccc3)c(Cl)c2c1 (stereo not drawn) [Example 1, (2,4-Dichloro-3-phenylquinolin-6-yl)(3,5-dimethylisoxazol-4-yl)methanol] | – | – | 6.26 | – | – | 48 | < 5.22 |
| COc1nc2c(C)cc(C(O)c3cncn3C)cc2c(Cl)c1Cc1ccc(S(C)(=O)=O)cc1 (stereo not drawn) [Example 10] | – | – | 5.52 | – | – | 59 | ~5.22 |

Continued, values first:

| inhibition at 2 µM ([1]; 2 µM compound) [%] | pIC50 [1] | pKd [2] | inhibition at 0.67 µM [1] [%] | RORγt (FL) Reporter Assay, % inhibition @ 2 µM ([1]; 2 µM compound, 2 µM) [%] | inhibition at 6 µM [3] [%] | pIC50 [3] | SMILES |
| --- | --- | --- | --- | --- | --- | --- | --- |
| 84 | 6.52 | 6.54 | – | – | – | – | COc1nc2ccc(C(O)c3c(C)noc3C)cc2c(Cl)c1Cc1ccc(C(F)(F)F)cc1 (single isomer, unassigned) [Example 20b, (4-Chloro-2-methoxy-3-(4-(trifluoromethyl)benzyl)quinolin-6-yl)(3,5-dimethylisoxazol-4-yl)methanol] |
| – | 7.70 | 7.96 | 95 | – | – | – | COc1nc2ccc(C(O)c3c(C)nn(C)c3C)cc2c(Cl)c1Cc1ccc(C(F)(F)F)cc1 (stereo not drawn) [Example 34a, (4-Chloro-2-methoxy-3-(4-(trifluoromethyl)benzyl)quinolin-6-yl)(1,3,5-trimethyl-1H-pyrazol-4-yl)methanol] |
| – | 7.64 | 7.66 | – | 99 | – | – | COc1nc2ccc(C(O)c3c(C)noc3C)cc2c(Cl)c1Cc1ccc(C(F)(F)F)cc1 (single isomer, unassigned) [Example 20c, (4-Chloro-2-methoxy-3-(4-(trifluoromethyl)benzyl)quinolin-6-yl)(3,5-dimethylisoxazol-4-yl)methanol] |
| – | – | 6.70 | – | – | 91 | 6.42 | Cc1ncc(C(O)c2ccc3nc(N4CCC4)c(Cc4ccc(-n5cccn5)cc4)c(Cl)c3c2)n1C (stereo not drawn) [Example 21a, {2-Azetidin-1-yl-4-chloro-3-[4-(1H-pyrazol-1-yl)benzyl]quinolin-6-yl)(1,2-dimethyl-1H-imidazol-5-yl)methanol] |
| 97 | 7.28 | 7.07 | – | – | – | – | COc1nc2ccc(C(O)c3c(C)noc3C)cc2c(Cl)c1Cc1ccc(C(F)(F)F)cc1 (stereo not drawn) [Example 20a, (4-Chloro-2-methoxy-3-(4-(trifluoromethyl)benzyl)quinolin-6-yl)(3,5-dimethylisoxazol-4-yl)methanol] |
| – | – | 6.62 | – | – | 96 | 6.42 | COc1nc2ccc(C(O)c3cncn3C)cc2c(Cl)c1Cc1ccc(C(F)(F)F)cc1 (stereo not drawn) [Example 18a, (4-Chloro-2-methoxy-3-(4-(trifluoromethyl)benzyl)quinolin-6-yl)(1-methyl-1H-imidazol-5-yl)methanol] |
